Data: patent publication US12169196B2, “Human iPSC-based drug testing platform for muscular dystrophy” (The Johns Hopkins University, priority 2019, dated 2024)

Assays:
D2 myoblasts = tested on: D2 myoblasts
Experimental: FIG. 7A: 9 primary hit compounds dose-response measured by MyHC antibody immunofluorescent intensity/nuclei. Concentrations of compounds were 0.001, 0.01, 0.1, 1, 2, 3, 4, 6 μM, except for saponin Q. which was 0.001, 0.01, 0.1, 0.2, 0.4, 0.6, 1 μM (n=3 for all). FIG. 7B: 9 primary hit compounds dose-response measured by α-actinin antibody immunofluorescent intensity/nuclei. Concentrations were same as in (FIG. 7A) (n=3 for all). FIGS. 7C-7E: Dose-response measured by cell average length of 3 analogs of saponin Q (n=3). […] (Data=Mean±SEM).
To further evaluate the efficacy of the 9 hit compounds and determine their optimal concentrations, an 8-point dose response assay was conducted, based on three parameters: anti-MyHC immunocytochemistry, anti-α-actinin immunocytochemistry and average cell length (FIGS. 7A-7B).

MEF2C = MEF2C protein expression by Western blot and immunocytochemistry in D2 myoblasts; assay type: cell-based, human
Description: FIG. 2C: Representative image of ginsenoside Rd-treated myoblasts labeled by MyHC. FIG. 2E Cell average length dose-response curve of ginsenoside Rd (FIGS. 2E-2F) Western blot quantification of MEF2C protein level post Saponin Q. and ginsenoside Rd treatment alongside healthy hiPSC derived myoblasts control and DMSO negative controls, *P 5 0.05, n=3. FIG. 2G: Quantification of MEF2C expressing nuclei of saponin Q. and ginsenoside Rd-treated D2 myoblasts, n=3, *P 5 0.05. (Data=Mean±SEM, one-way ANOVA with Dunnett's multiple comparison test with DMSO negative control).
(§1) Whole-cell extracts were prepared by lysing cells on plate with RIPA buffer (CST) supplemented by proteinase inhibitor and phosphatase inhibitor cocktail (CST). Western blotting was performed according to the standard protocol using precast NuPAGE (4-12%) Bis-Tris gel (Invitrogen). Protein transfer was performed with the Bio-Rad turbo or wet/tank blotting system. Nitrocellulose membranes were incubated with primary antibodies overnight at 4° C. Membranes were then incubated with a secondary IRDye 800 conjugated anti-rabbit IgG, or Alexa Fluor 680 anti-mouse IgG and proteins were visualized and quantified using the LI-COR Odyssey Infrared Imaging System (LI-COR). Primary antibodies applied in this study were all purchased from Cell Signaling Technology except for the MEF2C antibody, which was from Sigma.

FLT3 signaling pathway = conditions: 5 μM, 24 h
Description: Triplicate samples were used in microarray analysis. […] RNA was isolated using TRIzol (Invitrogen Life Technologies, Carlsbad, CA) followed by purification and DNase digestion using RNeasy mini kits (Qiagen, Venlo, Netherlands) according to manufacturer's instructions. […] Generation of sense strand cDNA from purified total RNA was followed by second strand synthesis, in vitro transcription cDNA synthesis, and single stranded cDNA synthesis and RNA hydrolysis. Fragmentation and labelling were performed according to manufacturer's instructions (GeneChip WT Plus reagent kit, Affymetrix, Santa). RNA extraction and qPCR were performed according to previous protocols, and primers are included in Table 1. The microarray data has been deposited in NCBI's Gene Expression Omnibus database and is accessible through the GEO series accession number GSE121023.

p21 (WAF1/CIP1) = test: Western blot of p21 protein expression in D2 myoblasts; assay type: cell-based, human; conditions: ginsenoside 25 μM or FLT3 recombinant protein 100 ng/ml, 30 min
Experimental: FIG. 3A: Top pathways selected by ingenuity pathway analysis of microarray result from ginsenoside Rd and fenofibrate-treated D2 myoblasts for 24 hours. Absolute z-score values above 2 were highlighted in red. FIGS. 3B and 3D: Quantification of western blot of p21 protein expression in D2 myoblasts treated with ginsenoside (25 μM), FLT3 recombinant protein (100 ng/ml) or DMSO for 30 min, n=4, *P≤0.05. FIG. 3C, 3E: Quantification of western blot of phosphorylated ERK 1/2 (p-ERK 1/2) in D2 myoblasts treated with ginsenoside (25 μM), FLT3 recombinant protein (100 ng/ml) or DMSO for 30 min, n=4, *P≤0.05. […] (Data=Mean±SEM, FIGS. 3D, 3E: one-way ANOVA with Dunnett's multiple comparison test with DMSO negative control, FIG. 3G: one-way ANOVA with Tukey's multiple comparison test).
as §1, with “Nitrocellulose membranes were incubated with primary antibodies overnight at 4° C.” left out, “Primary antibodies applied in this study were all purchased from Cell Signaling Technology except for the MEF2C antibody, which was from Sigma.” left out

mdx^5cv mice [1] = test: Evans blue staining and central nucleated fiber histology; assay type: in vivo, mouse; conditions: 8 weeks treatment
Description: (§2) All animal experiments were approved by the Institutional Animal Care and Use Committee (IACUC) of The Johns Hopkins University, School of Medicine (Baltimore, Maryland). Mdx^5cv (B6Ros.Cg-Dmdmdx-5Cv/J) were obtained from The Jackson Laboratory. Mice were maintained in a 12-h light cycle (7 am-7 pm) with ad libitum access to food and water. […] Ginsenoside Rd was suspended in saline containing 10% 1,3-propanediol as vector.
Gastrocnemius, tibialis anterior, and diaphragm muscles were embedded in OCT, frozen in isopentane, and cross-sectioned (˜2-10 μm thickness). The sections were also stained with DAPI to visualize nuclei. In mice where Evans blue dye (EBD, 10 mg/ml) was used to evaluate membrane damage, EBD was injected at 0.05 ml/10 g intraperitoneally, 24 hours before sacrificing the mice. To evaluate EBD staining, gastrocnemius muscle sections were fixed with acetone and imaged with fluorescence microscopy. The area of EBD as a percentage of total area was calculated. To evaluate the number of central nucleated fibers, sections of the tibialis anterior muscle were stained with hematoxylin and eosin. Central nucleated fiber number was counted and analyzed against total fiber number. Diaphragm sections (10 μm) were stained with Masson's trichrome to determine collagen content. The stained areas were quantified against the total area.

mdx^5cv mice [2] = test: Forelimb grip strength; assay type: in vivo, mouse; conditions: 8 weeks treatment
Experimental: as §2
(§3) Forelimb grip strength was measured as maximal tensile force using a computerized force transducer (Grip Strength Meter, Bioseb). Five measurements were performed for each animal and the maximum value was used for the analysis. Treadmill testing was performed using a motor-driven treadmill (Columbus Instruments). Prior to the test day, acclimatization was performed 5 times over a period of 2 weeks at 10 m/min. On the test day, mice ran at 5 m/min for 5 min (warm up) and the speed was increased 1 m/min every min up to 10 m/min. Mice were considered exhausted when they sat for more than 10 sec on a shock pad for the third time.

mdx^5cv mice [3] = test: Treadmill running; assay type: in vivo, mouse; conditions: 1344 h
Experimental: as §2, §3

In the case of `CC(C)=CCC[C@](C)(O[C@@H]1O[C@H](CO)[C@@H](O)[C@H](O)[C@H]1O)[C@H]1CC[C@]2(C)[C@@H]1[C@H](O)C[C@@H]1[C@@]3(C)CC[C@H](O[C@@H]4O[C@H](CO)[C@@H](O)[C@H](O)[C@H]4O[C@@H]4O[C@H](CO)[C@@H](O)[C@H](O)[C@H]4O)C(C)(C)[C@@H]3CC[C@]12C` [ginsenoside Rd], the “fusion of DMD hiPSC-derived myoblasts” value (D2 myoblasts) was “helped restore fusion”, the “toxicity / cell death” value (D2 myoblasts) was “lower toxicity” and the “dose-dependent effect on D2 myoblasts (cell average length)” value (D2 myoblasts; saponin analog test) was “dose-dependent effect”. For the same molecule, the “levels of MEF2C protein expression (Western blot)” value (MEF2C; vs DMSO) was “increased”, the “MEF2C expressing cells (immunocytochemistry)” value (MEF2C; vs vector control) was “more MEF2C expressing cells” and the “ingenuity pathway analysis z-score, FLT3 signaling pathway” value (FLT3 signaling pathway) was > 2. The “levels of p21” value (p21 (WAF1/CIP1)) was “Increased levels of p21”, the “number of Evans blue dye positive fibers” value (mdx^5cv mice [1]; gastrocnemius) was “not significantly different” and the central nucleated fibers (mdx^5cv mice [1]; tibialis anterior) was “not significantly different”. For the same molecule, the “improvement of forelimb grip strength” value (mdx^5cv mice [2]) was 19% and the “improvement of endurance on treadmill running” value (mdx^5cv mice [3]) was “no effect”.
